# In patent publication US8324390B2, “Tetrazole-substituted anthranilamides as pesticides” (Bayer CropScience AG, priority 2008, dated 2012):
# Read-outs that look alike come from different tables or passages of the source.
# Tests used:
# [1] = tested on: caterpillars of the armyworm (Spodoptera frugiperda); assay: Spodoptera frugiperda test (SPODFR spray treatment); format: in vivo; details: Spodoptera frugiperda, foliar, read-out: effect in % (caterpillars killed)
# Source text: Solvent: 78.0 parts by weight of acetone
# [2] = log P determination by HPLC (EEC Directive 79/831 Annex V.A8); format: physicochemical
# Experimental: The measurements were carried out using an Agilent 1100 LC system with a 50*4.6 Zorbax Eclipse C18 1.8 μm column (oven temperature 55° C., flow rate 2.0 ml/min).
# The following mobile phases were used:
# Mobile phase A: acetonitrile+1000 μl of formic acid/l
# Mobile phase B: Millipore water+900 μl of formic acid/l
# [3] = tested on: larvae of the mustard beetle (Phaedon cochleariae); assay: Phaedon test (PHAECO spray treatment); details: Phaedon cochleariae, in Brassica rapa, foliar, read-out: effect in % (beetle larvae killed)
# [4] = application rate 100 g/ha, maize leaf discs
# [5] = reversed-phase HPLC, Zorbax Eclipse C18 column, by HPLC according to EEC Directive 79/831 Annex V.A8, read-out: log P
# [6] = reversed-phase HPLC, Zorbax Eclipse C18 column, determined by HPLC according to EEC Directive 79/831 Annex V.A8, read-out: log P
"chromatographic logP [2, 5]","chromatographic logP [2, 6]",SMILES,"pest or weed control at 100 g/ha [1, 4] [%]",pest or weed control at 100 g/ha [3] [%],pest or weed control at 100 g/ha ([1]; in Zea mays) [%],chromatographic logP ([2]; log P),"chromatographic logP ([2]; by HPLC according to EEC Directive 79/831 Annex V.A8, read-out: log P)"
3.1,,Cc1cc(C#N)cc(C(=O)NC(C)C)c1NC(=O)c1cc(Cn2nnc(C(F)(F)F)n2)nn1-c1ncccc1Br [Example 323],≥ 80,≥ 80,,,
3.95,,Cc1cc(C#N)cc(C(=O)NC(C)(C)C)c1NC(=O)c1cc(Cn2nnc(C(F)(F)F)n2)nn1-c1ccccc1Br [Example 347],≥ 80,≥ 80,,,
,,Cc1cc(Cl)cc(C(=O)NCC#N)c1NC(=O)c1cc(Cn2nnc(C(F)F)n2)nn1-c1ncccc1Cl [Example 261],,≥ 80,≥ 80,2.5,
,,Cc1cc(I)cc(C(=O)NC2CC2)c1NC(=O)c1cc(Cn2nnc(C(F)(F)C(F)(F)C(F)(F)F)n2)nn1-c1ncccc1Cl [Example 111],,≥ 80,≥ 80,,4.23
3.9,,Cc1cc(I)cc(C(=O)NC(C)C)c1NC(=O)c1cc(Cn2nnc(C(F)(F)F)n2)nn1-c1ncccc1C(F)(F)F [Example 243],≥ 80,≥ 80,,,
,,Cc1cc(Cl)cc(C(=O)NC(C)(C)C)c1NC(=O)c1cc(Cn2nnc(C(F)F)n2)nn1-c1ncccc1Cl [Example 258],,≥ 80,≥ 80,3.32,
3.01,,CNC(=O)c1cc(Cl)cc(C)c1NC(=O)c1cc(Cn2nnc(C(F)(F)F)n2)nn1-c1ncccc1Br [Example 331],≥ 80,≥ 80,,,
,,Cc1cc(C#N)cc(C(=O)NCC(C)(C)CF)c1NC(=O)c1cc(Cn2nnc(C(F)(F)F)n2)nn1-c1ncccc1Cl [Example 116],,≥ 80,≥ 80,3.35,
,,CC(C)NC(=O)c1cc(Cl)cc(Cl)c1NC(=O)c1cc(Cn2nnnc2C(F)(F)C(F)(F)F)nn1-c1ncccc1Cl [Example 205],,≥ 80,≥ 80,3.52,
,3.3,CCNC(=O)c1cc(I)cc(C)c1NC(=O)c1cc(Cn2nnnc2C(F)(F)F)nn1-c1ncccc1C(F)(F)F [Example 457],≥ 80,≥ 80,,,
4.13,,Cc1cc(Br)cc(C(=O)NC(C)(C)C)c1NC(=O)c1cc(Cn2nnc(C(F)(F)F)n2)nn1-c1ncccc1C(F)(F)F [Example 245],≥ 80,≥ 80,,,
,,Cc1cc(Cl)cc(C(=O)NCC2CC2)c1NC(=O)c1cc(Cn2nnc(C(F)(F)C(F)(F)F)n2)nn1-c1ncccc1Cl [Example 131],,≥ 80,≥ 80,3.93,
,,CCNC(=O)c1cc(Cl)cc(C)c1NC(=O)c1cc(Cn2nnc(C(F)F)n2)nn1-c1ncccc1Cl [Example 257],,≥ 80,≥ 80,2.69,
,,CCC(C)NC(=O)c1cc(Cl)cc(C)c1NC(=O)c1cc(Cn2nnc(C(F)(F)F)n2)nn1-c1ncccc1Cl (stereo not drawn) [Example 36],,≥ 80,≥ 80,3.74,
,,Cc1cc(Br)cc(C(=O)NC(C)C2CC2)c1NC(=O)c1cc(Cn2nnc(C(F)F)n2)nn1-c1ncccc1Cl (stereo not drawn) [Example 297],,≥ 80,≥ 80,3.36,
,,CCNC(=O)c1cc(I)cc(C)c1NC(=O)c1cc(Cn2nnc(C(F)(F)F)n2)nn1-c1ncccc1Cl [Example 66],,≥ 80,≥ 80,3.47,
,,Cc1cc(I)cc(C(=O)NC(C)C2CC2)c1NC(=O)c1cc(Cn2nnc(C(F)(F)C(F)(F)F)n2)nn1-c1ncccc1Cl (stereo not drawn) [Example 141],,≥ 80,≥ 80,4.42,
,,Cc1cc(F)cc(C(=O)NC(C)(C)C)c1NC(=O)c1cc(Cn2nnc(C(F)(F)F)n2)nn1-c1ncccc1Cl [Example 115],,≥ 80,≥ 80,3.51,
,,Cc1cc(Cl)cc(C(=O)NC2CC2)c1NC(=O)c1cc(Cn2nnc(C(F)F)n2)nn1-c1ncccc1Cl [Example 230],,≥ 80,≥ 80,2.72,
,,Cc1cc(Cl)cc(C(N)=O)c1NC(=O)c1cc(Cn2nnc(C(F)(F)C(F)(F)F)n2)nn1-c1ncccc1Cl [Example 130],,≥ 80,≥ 80,3.15,

"chromatographic logP [2, 5]","chromatographic logP [2, 6]",SMILES,"pest or weed control at 100 g/ha [1, 4] [%]",pest or weed control at 100 g/ha [3] [%],pest or weed control at 100 g/ha ([1]; in Zea mays) [%],chromatographic logP ([2]; log P),"chromatographic logP ([2]; by HPLC according to EEC Directive 79/831 Annex V.A8, read-out: log P)"
,,CSC[C@H](C)NC(=O)c1cc(Cl)cc(C)c1NC(=O)c1cc(Cn2nnc(C(F)F)n2)nn1-c1ncccc1Cl [Example 302],,≥ 80,≥ 80,3.18,
,,Cc1cc(I)cc(C(=O)NC2CC2)c1NC(=O)c1cc(Cn2nnc(C(F)(F)F)n2)nn1-c1ncccc1Cl [Example 69],,≥ 80,≥ 80,3.46,
4.1,,Cc1cc(C#N)cc(C(=O)NC(C)(C)C)c1NC(=O)c1cc(Cn2nnc(C(F)(C(F)(F)F)C(F)(F)F)n2)nn1-c1ncccc1Cl [Example 371],≥ 80,≥ 80,,,
,,Cc1cc(Cl)cc(C(=O)NC(C)C2CC2)c1NC(=O)c1cc(Cn2nnnc2C(F)(F)C(F)(F)F)nn1-c1ncccc1Cl (stereo not drawn) [Example 199],,≥ 80,≥ 80,3.88,
,4.16,Cc1cc(C#N)cc(C(=O)NC(C)(C)C)c1NC(=O)c1cc(Cn2nnc(C(F)(F)F)n2)nn1-c1ccc(Cl)cc1 [Example 527],≥ 80,≥ 80,,,
3.57,,Cc1cc(C#N)cc(C(=O)NCC(F)F)c1NC(=O)c1cc(Cn2nnc(C(F)(C(F)(F)F)C(F)(F)F)n2)nn1-c1ncccc1Cl [Example 375],≥ 80,≥ 80,,,
,3.17,CCNC(=O)c1cc(Br)cc(C)c1NC(=O)c1cc(Cn2nnnc2C(F)(F)F)nn1-c1ncccc1C(F)(F)F [Example 453],≥ 80,≥ 80,,,
3.79,,Cc1cc(C#N)cc(C(=O)NC(C)C)c1NC(=O)c1cc(Cn2nnc(C(F)(C(F)(F)F)C(F)(F)F)n2)nn1-c1ncccc1Cl [Example 370],≥ 80,≥ 80,,,
,3.31,Cc1cc(I)cc(C(=O)NC2CC2)c1NC(=O)c1cc(Cn2nnnc2C(F)(F)F)nn1-c1ncccc1C(F)(F)F [Example 456],≥ 80,≥ 80,,,
4.09,,Cc1cc(I)cc(C(=O)NC(C)(C)C)c1NC(=O)c1cc(Cn2nnc(C(F)(F)F)n2)nn1-c1ncccc1Br [Example 352],≥ 80,≥ 80,,,
,,Cc1cc(C#N)cc(C(=O)NC(C)(C)C)c1NC(=O)c1cc(Cn2nnc(C(F)F)n2)nn1-c1ncccc1Cl [Example 267],,≥ 80,≥ 80,2.88,
,,CCNC(=O)c1cc(C#N)cc(C)c1NC(=O)c1cc(Cn2nnc(C(F)(F)C(F)(F)F)n2)nn1-c1ncccc1Cl [Example 215],,≥ 80,≥ 80,3.24,
,3.8,Cc1cc(C#N)cc(C(=O)NC(C)C2CC2)c1NC(=O)c1cc(Cn2nnnc2C(F)(C(F)(F)F)C(F)(F)F)nn1-c1ncccc1Cl (stereo not drawn) [Example 499],≥ 80,≥ 80,,,
,,CSC[C@H](C)NC(=O)c1cc(Cl)cc(C)c1NC(=O)c1cc(Cn2nnc(C(F)(F)C(F)(F)F)n2)nn1-c1ncccc1Cl [Example 212],,≥ 80,≥ 80,4.09,
3.39,,Cc1cc(Cl)cc(C(=O)NC2CC2)c1NC(=O)c1cc(Cn2nnc(C(F)(F)F)n2)nn1-c1ncccc1C(F)(F)F [Example 225],≥ 80,≥ 80,,,
,,Cc1cc(F)cc(C(=O)NCC2CC2)c1NC(=O)c1cc(Cn2nnc(C(F)(F)F)n2)nn1-c1ncccc1Cl [Example 48],,≥ 80,≥ 80,3.18,
,,CCNC(=O)c1cc(Cl)cc(Cl)c1NC(=O)c1cc(Cn2nnc(C(F)(F)C(F)(F)F)n2)nn1-c1ncccc1Cl [Example 152],,≥ 80,≥ 80,3.57,
,,O=C(NC1CC1)c1cc(Cl)cc(Cl)c1NC(=O)c1cc(Cn2nnnc2C(F)F)nn1-c1ncccc1Cl [Example 469],,≥ 80,≥ 80,2.44,
,3.91,Cc1cc(C#N)cc(C(=O)NC(C)C)c1NC(=O)c1cc(Cn2nnc(C(F)(F)C(F)(F)F)n2)nn1-c1ccccc1Cl [Example 539],≥ 80,≥ 80,,,
,,CC(C)(C)NC(=O)c1cc(Cl)cc(Cl)c1NC(=O)c1cc(Cn2nnc(C(F)F)n2)nn1-c1ncccc1Cl [Example 287],,≥ 80,≥ 80,3.28,
